Laboratory results taken from publication PMC9574855 (Journal of Medicinal Chemistry, 2022).

Experiments:
LOK = conditions: 300 nM, KiNativ, Jurkat cell lysate; cited from earlier work
ITPK1 = conditions: 300 nM, KiNativ, Jurkat cell lysate; cited from earlier work
[1] = tested on: 24 human lipid kinases and 83 human protein kinases; conditions: 300 nM, KiNativ; cited from earlier work
[2] = tested on: His6-SARS-CoV-2 spike protein uptake by HEK293T-ACE2 cells; experiment: Spike uptake assay in HEK293T-ACE2 cells; assay type: cell-based, human; conditions: 1 μM
[3] = tested on: His6-SARS-CoV-2 spike protein uptake by Calu-3 cells; experiment: Spike uptake assay in Calu-3 cells; assay type: cell-based; conditions: 1 μM
[4] = tested on: His6-SARS-CoV-2 spike protein uptake by Caco-2 cells; experiment: Spike uptake assay in Caco-2 cells; assay type: cell-based; conditions: 1 μM
[5] = tested on: lentivirus pseudotyped with the SARS-CoV-2 spike glycoprotein; assay type: cell-based; conditions: Calu-3 cells, 1 μM
bald GFP lentivirus = assay type: cell-based; conditions: Calu-3 cells, 1 μM
SH-SY5Y cells = experiment: Lysosomal staining; assay type: cell-based, human; conditions: 5 μM, 24 h
403 WT human kinases = conditions: 1 μM, published data, apilimod; cited from earlier work

Row | Compound | inhibition of LOK (LOK) [%] | inhibition of ITPK1 (ITPK1) [%] | Gini coefficient [1] | His6-SARS-CoV-2 spike protein uptake [2] | His6-SARS-CoV-2 spike protein uptake [3] | His6-SARS-CoV-2 spike protein uptake [4] | entry of lentivirus pseudotyped with SARS-CoV-2 spike glycoprotein [5] | entry of bald lentivirus (bald GFP lentivirus) | vacuoles in LysoTracker-stained cells (SH-SY5Y cells) | # scanMAX kinases with PoC < 10 (403 WT human kinases)
1 | Cc1cccc(/C=N/Nc2cc(N3CCOCC3)n3nc(-c4ccncc4)cc3n2)c1 [APY0201, 2-[7-(4-morpholinyl)-2-(4-pyridinyl)pyrazolo[1,5-a]pyrimidin-5-yl]hydrazone, 3-methyl-benzaldehyde] | > 50 | > 50 | 0.753 |  |  |  |  |  |  | 
2 | Cc1cccc(/C=N/Nc2cc(N3CCOCC3)nc(OCCc3ccccn3)n2)c1 [Apilimod, 4-(6-(2-(3-Methylbenzylidene)hydrazinyl)-2-(2-(pyridin-2-yl)ethoxy)pyrimidin-4-yl)morpholine, reference compound] |  |  |  | significantly reduced spike protein uptake | efficiently reduced spike protein uptake | efficiently reduced spike protein uptake | inhibition of pseudoviral entry | entry of bald lentivirus was not impacted | vacuoles are present | 1
